Laboratory results as given in patent US7378425B2, “(1-Indanone)-(1,2,3,6-tetrahydropyridine) compounds” (Eisai R & D Management Co., Ltd., priority 2002, dated 2008).
Where a name gives a salt, the structure may show the parent alone. Read-outs that look alike come from different tables or passages of the source.

Tests used:
[1] = biological target: T1, acetylcholinesterase (rat brain homogenate) (Rattus norvegicus, UniProt P37136); assay: biochemical
T1 construct: Using a rat brain homogenate as a source of acetylcholinesterase; from tissue; host or cells: rat brain homogenate
T1 sequence (P37136 32-614): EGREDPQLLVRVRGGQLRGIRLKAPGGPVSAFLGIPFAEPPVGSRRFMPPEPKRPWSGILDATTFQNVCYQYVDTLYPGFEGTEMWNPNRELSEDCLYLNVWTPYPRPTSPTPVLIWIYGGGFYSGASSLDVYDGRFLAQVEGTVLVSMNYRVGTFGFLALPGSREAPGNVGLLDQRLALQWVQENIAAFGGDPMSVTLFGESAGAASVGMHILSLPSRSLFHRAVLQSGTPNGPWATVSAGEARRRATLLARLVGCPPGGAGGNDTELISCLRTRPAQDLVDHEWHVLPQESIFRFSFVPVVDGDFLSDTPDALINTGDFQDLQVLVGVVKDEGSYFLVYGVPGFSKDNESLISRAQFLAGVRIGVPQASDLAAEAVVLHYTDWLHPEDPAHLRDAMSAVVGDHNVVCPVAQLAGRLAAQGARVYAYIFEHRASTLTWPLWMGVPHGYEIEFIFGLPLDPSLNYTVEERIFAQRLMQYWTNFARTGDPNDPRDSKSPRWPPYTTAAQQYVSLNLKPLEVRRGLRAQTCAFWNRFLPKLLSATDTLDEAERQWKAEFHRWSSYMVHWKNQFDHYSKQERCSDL
Method: Inhibitory Effect on Acetylcholinesterase
To DTNB (5,5′-dithiobis(2-nitrobenzoic acid)), acethylthiocholine (as a substrate) and a test compound was added the rat brain homogenate and incubated.

[2] = biological target: sigma receptor (guinea pig brain crude membrane fraction); assay: Sigma receptor binding assay (3H-DTG); conditions: inhibition of 3H-DTG binding to guinea pig brain crude membrane fraction, 25° C., 1 hour
Method: Sigma Receptor Binding Assay
(1) Preparation of Receptor
The washing procedure was repeated once more under the same conditions, and the resulting crude membrane fraction was subjected to the assay.
The specific binding and the non-specific binding in the absence of the test compound were determined in the same way as above except for using 50% DMSO solution instead of the test compound and using a 100 μM Haloperidol solution instead of the test compound, respectively.
(3) Determination of Inhibition
The inhibitions of the test compound at individual concentrations were determined from the ratio of the specific binding in the presence of the test compound to the specific binding in the absence thereof. The dose-response curve was regressed according to a logit-log model in which the ratio of the specific binding in the presence of the test compound to the specific binding in the absence thereof was subjected to logit transformation and plotted against the common logarithm value of each concentration.

Structure (SMILES)	IC50 [1] [nM]	IC50 [2] [nM]	IC50 ([1]; rat brain homogenate, acetylthiocholine substrate, DTNB, absorbance at 412 nm, read-out: Acetylcholinesterase inhibition IC50) [nM]
COc1cc2c(cc1OC)C(=O)C(CC1=CCN(Cc3ccccc3)CC1)C2 (stereo not shown) [Example 1, 1-benzyl-4-[(5,6-dimethoxy-1-indanon)-2-yl]methyl-1,2,3,6-tetrahydropyridine hydrochloride]	4.2	–	–
CCOc1cc2c(cc1OCC)C(=O)C(CC1=CCN(Cc3ccccc3)CC1)C2 (stereo not shown) [Example 2, 1-benzyl-4-[(5,6-diethoxy-1-indanon)-2-yl]methyl-1,2,3,6-tetrahydropyridine hydrochloride]	–	5	–
CCOc1cc2c(cc1OCC)C(=O)C(F)(CC1=CCN(Cc3ccccc3)CC1)C2 (stereo not shown) [Example 3, 1-benzyl-4-[(5,6-diethoxy-2-fluoro-1-indanon)-2-yl]methyl-1,2,3,6-tetrahydropyridine hydrochloride]	–	4.7	0.4
